# According to US8450300B2 (priority 2009, dated 2013):
# Read-outs that look alike come from different tables or passages of the source.
# Tests used:
# [1] = test system: 217 S. aureus Canadian isolates; type: cell-based; conditions: 217 Canadian isolates
# Description: CLSI broth microdilution (BMD) and anaerobic agar dilution (AD) methods were performed. Modifications of standard test methods included adding 10% human serum, adjusting the medium pH to 5, 6, and 8, and synergy was assessed by the checkerboard method.
# [2] = Single oral dose bioavailability study, fed/fasted crossover, plasma fusidic acid; conditions: human, in vivo, 500 mg, 500 mg single oral dose; for AUC(0-t): read-out: AUC0-t, geometric mean (CV %); for AUC(0-inf): read-out: AUCinf, geometric mean (CV %); for Cmax: read-out: Cmax, geometric mean (CV %); for half-life: read-out: t1/2, arithmetic mean ± SD (converted); for AUC: read-out: total exposure (AUC)
# Description: This was a single-center, Phase 1, double-blind, randomized, 3 period, fed/fasted crossover bioequivalence study designed to evaluate the relative bioavailability and safety and tolerability of a single oral dose of CEM-102 500 mg compared to Fucidin® 500 mg in healthy subjects.
# Subjects were randomized in equal numbers to the 4 treatment sequences (Table 3).
# Study Period 1, 2, and 3 (Days 1, 15, and 29): One dose of study drug 500 mg (2×250 mg) of CEM-102 or Fucidin® was given at 8:00 AM (˜30 minutes). On Day 1 of Study Periods 1 and 2 (Days 1 and 15), subjects fasted overnight for at least 10 hours prior to dosing. On Day 1 of Study Period 3 (Day 29), subjects were given a high fat caloric meal which was to be entirely consumed within 30 minutes prior to study drug administration.
# Blood samples for assay of plasma concentrations were collected on Days 1, 15 and 29 at pre-dose and 0.5, 1, 1.5, 2, 2.5, 3, 3.5, 4, 6, 8, 12, 16, 24, 36, and 48 hours after the dose. Plasma concentrations were assayed at MicroConstants, Inc. in San Diego, Calif. using a validated liquid chromatography with dual tandem mass spectrometry (LC/MS/MS) method with a lower limit of quantitation (LLOQ) of 20.0 ng/mL
compound,measurement,setting,value
"CC(=O)O[C@H]1C[C@@]2(C)[C@@H](C[C@@H](O)[C@H]3[C@@]4(C)CC[C@@H](O)[C@@H](C)[C@@H]4CC[C@@]32C)/C1=C(\CCC=C(C)C)C(=O)O [CEM-102, Sodium fusidate]",isolates with MICs of ≧2.0 μg/mL (classified as resistant),[1],6.5%
same,AUC(0-t),[2]; fasting,300 µg·h/mL
same,AUC(0-inf),[2]; fasting,318 µg·h/mL
same,Cmax,[2]; fasting,27400 ng/mL
same,half-life,[2]; fasting,11.8 ± 2.2 h
same,AUC,[2]; fasting,~318 µg·h/mL
same,AUC(0-t),[2]; fed,269 µg·h/mL
same,AUC(0-inf),[2]; fed,285 µg·h/mL
same,Cmax,[2]; fed,21200 ng/mL
same,half-life,[2]; fed,11.5 ± 2.75 h
same,AUC,[2]; fed,~285 µg·h/mL
